Experiments:
androgen receptor = target: T1, androgen receptor (Rattus norvegicus, UniProt P15207); assay: androgenic activity by hormonal receptor method (displacement of tritied R from prostate cytosol); type: binding, rats; conditions: castrated male rat prostate cytosol, incubated at 0° C. for 2 hours, testosterone = 100
T1 construct: The prostate was removed from male rats castrated 24 hours earlier and it was homogenized; from tissue; host or cells: prostate cytosol (105,000 g supernatant) of male rats castrated 24 hours earlier
T1 sequence (P15207 1-902): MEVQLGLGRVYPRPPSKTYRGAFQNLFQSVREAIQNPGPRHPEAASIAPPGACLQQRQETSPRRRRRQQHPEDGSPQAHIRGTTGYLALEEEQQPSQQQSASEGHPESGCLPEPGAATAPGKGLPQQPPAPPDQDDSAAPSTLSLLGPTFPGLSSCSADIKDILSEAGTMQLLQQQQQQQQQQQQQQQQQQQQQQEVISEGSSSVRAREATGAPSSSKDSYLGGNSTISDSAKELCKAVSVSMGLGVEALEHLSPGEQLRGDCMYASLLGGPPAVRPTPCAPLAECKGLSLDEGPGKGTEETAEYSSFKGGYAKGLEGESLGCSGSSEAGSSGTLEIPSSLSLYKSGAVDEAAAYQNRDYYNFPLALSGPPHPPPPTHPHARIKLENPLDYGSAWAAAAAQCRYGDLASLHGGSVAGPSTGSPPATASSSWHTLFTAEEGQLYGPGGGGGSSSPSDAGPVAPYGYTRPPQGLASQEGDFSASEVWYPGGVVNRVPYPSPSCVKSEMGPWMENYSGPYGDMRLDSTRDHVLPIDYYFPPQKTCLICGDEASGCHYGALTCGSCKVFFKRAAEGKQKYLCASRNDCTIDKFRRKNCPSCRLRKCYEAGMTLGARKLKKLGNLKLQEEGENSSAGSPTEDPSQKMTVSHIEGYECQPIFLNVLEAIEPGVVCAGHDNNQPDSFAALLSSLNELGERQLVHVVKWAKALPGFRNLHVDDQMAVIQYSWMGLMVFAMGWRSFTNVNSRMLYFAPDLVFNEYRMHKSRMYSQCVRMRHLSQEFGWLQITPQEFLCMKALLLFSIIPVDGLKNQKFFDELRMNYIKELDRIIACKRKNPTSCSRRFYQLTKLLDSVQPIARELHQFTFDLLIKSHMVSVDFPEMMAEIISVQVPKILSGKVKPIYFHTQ
Experimental: The androgenic activity of the compound of Example 1 and 11β-propyl-17α-methyl-Δ^4,9 -estradiene-17β-ol-3-one (compound A) were compared by the hormonal receptor method of Raynaud et al [J. Ster. Biochem., Vol. 6 (1975), p. 615-622]. The prostate was removed from male rats castrated 24 hours earlier and it was homogenized in a buffered 10 mmole tromethamine solution containing 0.25 M of saccharose and a pH of 7.4 with hydrochloric acid. The homogenate was centrifuged at 105,000 g for one hour and the liquid surnageant or "cytosol" was adjusted to obtain a 1/5 (weight/volume) dilution.
The radioactivity of tritied product was determined after about 2 hours in the receptor by the technique of carbon-dextran (1.25%-0.625%) absorption. […] B/T max. is the percentage of tied tritied R product when the compound is not added. B/T min. is the percentage of tied tritied product R when the maximum amount of cold product R is added. […] The relative affinity of the test product or ARL was determined using the formula [formula]

calves of the FFPN race = assay: weight gain test in calves after percutaneous treatment; type: in vivo
Experimental: This test was effected with groups of calves of the FFPN race and all groups received the same amount of feed. The control group were untreated and the other group received percutaneously on day J and J+7 200 mg of the compound of Example 1. The weights of the animals were determined 7 days before the treatment (J-7), on the day of treatment (J), on the day of the second treatment (J+7) and one week after the second treatment (J+14) and the results are reported in the following Table.

Structure (SMILES)	relative affinity (ARL) (androgen receptor)	average weight gain (calves of the FFPN race; 7 days after the test, J 14 to J 21, 200 mg percutaneously on J and J+7) [kg]	Average weight of calves (calves of the FFPN race; day J + 7, day of second treatment, 200 mg percutaneously on J and J+7) [kg]	Average weight of calves (calves of the FFPN race; day J + 14, one week after second treatment, 200 mg percutaneously on J and J+7) [kg]	Average weight of calves (calves of the FFPN race; day J - 7, 7 days before the treatment (baseline)) [kg]	Average weight of calves (calves of the FFPN race; day J, day of first treatment (200 mg percutaneously)) [kg]	average weight gain (calves of the FFPN race; table total (J to J + 14), 200 mg percutaneously on J and J+7) [kg]
CCC[C@H]1C[C@@]2(C)[C@@H](CC[C@]2(C)O)[C@@H]2CCC3=CC(=O)CCC3=C12 [product A, 11β-propyl-17α-methyl-Δ^4,9-estradiene-17β-ol-3-one, reference compound]	22	–	–	–	–	–	–
C[C@H]1C[C@@]2(C)[C@@H](CC[C@]2(C)O)[C@@H]2CCC3=CC(=O)CCC3=C21 [Example 1, 11β,17α-dimethyl-Δ^4,9-estradiene-17β-ol-3-one]	90	8.63	60.47	70.67	45.50	52.30	18.37

— patent US4431640A, “Process for inducing anabolic and androgenic activity in animals” (Roussel Uclaf, priority 1980, dated 1984)
